Measured values published in patent US20240400584A1, “COMPOUNDS AND METHODS FOR MODULATING SPLICING” (REMIX THERAPEUTICS INC., priority 2021, published 2024).
Like-named read-outs stand apart in the source and are kept apart here.

Assays:
HTT = experiment: Gene panel canonical junction qPCR assay, HTT CJ mRNA (Table 7); format: cell-based, human; settings: read-out: HTT CJ mRNA decrease IC50
Procedure, shortened: (§1)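 Canonical-junction transcript levels are quantified by RT-qPCR after compound treatment of K562 or A673 cells. Primers or a CY5 probe overlap the exon junction; signals are normalized to GAPDH, GUSB or PPIA and to DMSO, then scaled to a set ΔCt assay window and fitted for IC50.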

SMN2 = experiment: Gene panel canonical junction qPCR assay, SMN2 CJ mRNA (Table 7); format: cell-based; settings: Homo sapiens, read-out: SMN2 CJ mRNA decrease IC50
Procedure, shortened: as §1

[1] = test system: HiBit-tagged Target C in K562 cells; experiment: HiBiT protein abundance assay, Target C; format: cell-based, human; settings: HiBiT-modified K562 cells, 24 hours, luminescence
Experimental: (§2) Compounds described herein were used to screen for effects on quantitative protein abundance using a HiBit assay system (Promega). Quantitative protein abundance was determined by measuring the protein levels of HiBit-tagged protein targets expressed in cell culture via luminescence using the Nano-Glo HiBiT Lytic Detection System, which uses a split complementation assay format to reconstitute NanoBiT enzyme to generate a luminescent signal. A protein abundance assay was developed such that endogenous protein targets could be modified with the HiBiT peptide tag and their abundance could be assessed after compound treatment. Briefly, K562 cell lines containing a HiBiT-modification were treated with various compounds described herein (e.g., compounds of Formulas (I)). After treatment for 24 hours, the protein abundance of a specific target was determined by measuring luminescence.
(§3) Cells were maintained in IMDM with 10% FBS. Before the assay, cells were diluted with […] growth media (IMDM+[…] media) and were seeded in a 384-well plate at a density of 10000 cells/well (for each cell line listed in Table 8). Each compound was prepared as a 10-point 3-fold serial dilution in DMSO with the top dose at a final concentration of 10 μM in the well. Unmodified K562 cells were added at the previously specified density with DMSO to serve as an assay baseline and positive control (PC) and DMSO only with the respective modified cell lines was added to the negative control (NC) columns. Final DMSO concentration was kept at or below 0.25% o. Treated cell plates were placed in an incubator at 37° C. with […] for 24 hours. After 24 hours, 25 μL of Complete HiBit Lytic reagent was added to each well at room temperature (e.g. one plate requiring 10 mL Lytic Buffer, 100 μL LgBiT Protein, 200 μL Lytic Substrate), shaken for 5 minutes at 600 RPM, then left to sit for 10 minutes for signal to stabilize before reading on a Spark Cyto plate reader (Tecan) with a 500 ms measurement time.
(§4) To determine compound effects on protein abundance of each target in Table 9, the percent response for each respective cell line was calculated at each compound concentration as follows:
(§5) For the normalized response at each concentration, a four-parameter logistical regression was fit to the data and the response was interpolated at the […] to determine a concentration for protein abundance at 50% o (IC50) the untreated control.

[2] = test system: HiBit-tagged MYB in K562 cells; experiment: HiBiT protein abundance assay, MYB; format: cell-based, human; settings: HiBiT-modified K562 cells, 24 hours, luminescence
Experimental: as §2, §3, §4, §5

| Compound | IC50 (HTT; Homo sapiens) | IC50 (SMN2) | IC50 [1] | IC50 [2] | IC50 (HTT) |
| --- | --- | --- | --- | --- | --- |
| COc1cc(-c2ccc3c(c2)COc2nc(N(C)[C@@H]4C[C@H]5CC[C@@H](C4)N5)ccc2-3)cnn1 [Compound 159] | < 0.1 µM | < 0.1 µM | < 0.1 µM | < 0.1 µM | – |
| CN(c1ccc2c(c1)CCOc1cc(-n3cccn3)ccc1-2)[C@@H]1C[C@H]2CC[C@@H](C1)N2 [Compound 113] | > 10 µM | > 10 µM | > 10 µM | 1 to 10 µM | – |
| CN(c1ccc2c(c1)OCc1cc(-c3cn[nH]c3)ccc1-2)[C@@H]1C[C@H]2CC[C@@H](C1)N2 [Compound 104] | > 10 µM | – | 1 to 10 µM | 1 to 10 µM | – |
| COc1cc(-c2ccc3c(c2)COc2nc(O[C@@H]4C[C@H]5COC[C@@H](C4)N5)ccc2-3)cnn1 [Compound 290, (exo)-7-{[8-(6-methoxypyridazin-4-yl)-6H-isochromeno[3,4-b]pyridin-3-yl]oxy}-3-oxa-9-azabicyclo[3.3.1]nonane] | < 0.1 µM | < 0.1 µM | < 0.1 µM | 0.1 to 1 µM | – |
| CC1(C)CC(Nc2ccc3c(n2)OCc2cc(-n4cccn4)ccc2-3)CC(C)(C)N1 [Compound 165] | 0.1 to 1 µM | < 0.1 µM | 0.1 to 1 µM | 0.1 to 1 µM | – |
| CN(c1ccc2c(n1)OCc1cc(-n3ccnn3)ccc1-2)[C@@H]1C[C@H]2CC[C@@H](C1)N2 [Compound 152] | 0.1 to 1 µM | < 0.1 µM | 0.1 to 1 µM | 0.1 to 1 µM | – |
| CN(c1ccc2c(n1)OCc1cc(-c3cn[nH]c3)ccc1-2)[C@@H]1C[C@H]2CC[C@@H](C1)N2 [Compound 108] | < 0.1 µM | < 0.1 µM | < 0.1 µM | < 0.1 µM | – |
| CN(c1ccc2c(c1)COc1cc(-n3cccn3)ccc1-2)C1CC(C)(C)NC(C)(C)C1 [Compound 117] | > 10 µM | > 10 µM | 1 to 10 µM | 1 to 10 µM | – |
| CN(c1cnc2c(n1)OCc1cc(-c3cn[nH]c3)ccc1-2)C1CC(C)(C)NC(C)(C)C1 [Compound 142] | – | 0.1 to 1 µM | 1 to 10 µM | 1 to 10 µM | 0.1 to 1 µM |
| COc1cc(-c2ccc3c(c2)COc2nc(N4CCN[C@@H](C)C4)ccc2-3)cnn1 [Compound 287] | 0.1 to 1 µM | 0.1 to 1 µM | 0.1 to 1 µM | 0.1 to 1 µM | – |
| COc1cc(-c2ccc3c(c2)COc2nc(N4CCC(N(C)C)C4)ccc2-3)cnn1 (centres unmarked) [Compound 306, 1-[8-(6-methoxypyridazin-4-yl)-6H-isochromeno[3,4-b]pyridin-3-yl]-N,N-dimethylpyrrolidin-3-amine] | 0.1 to 1 µM | 0.1 to 1 µM | 0.1 to 1 µM | 1 to 10 µM | – |
| C[C@@H]1C[C@H](N(C)c2ccc3c(c2)OCc2cc(-c4cn[nH]c4)ccc2-3)CCN1 [Compound 101] | – | – | 1 to 10 µM | 1 to 10 µM | – |
| Cc1cn(-c2ccc3c(c2)COc2nc(N(C)[C@@H]4C[C@H]5CC[C@@H](C4)N5)ccc2-3)cn1 [Compound 164] | < 0.1 µM | < 0.1 µM | < 0.1 µM | 0.1 to 1 µM | – |
| CN(c1ccc2c(n1)OCc1cc(-n3nccn3)ccc1-2)[C@@H]1C[C@H]2CC[C@@H](C1)N2 [Compound 151] | < 0.1 µM | < 0.1 µM | < 0.1 µM | 0.1 to 1 µM | – |
| CN(c1ccc2c(n1)OCc1cc(-n3cccn3)ccc1-2)[C@@H]1C[C@H]2CC[C@@H](C1)N2 [Compound 149] | 0.1 to 1 µM | 0.1 to 1 µM | 0.1 to 1 µM | 0.1 to 1 µM | – |
| CN(c1ccc2c(n1)COc1cc(-n3cccn3)ccc1-2)C1CC(C)(C)NC(C)(C)C1 [Compound 125] | > 10 µM | > 10 µM | 1 to 10 µM | 0.1 to 1 µM | – |
| CC1(C)CC(Nc2ccc3c(c2)COc2cc(-n4cccn4)ccc2-3)CC(C)(C)N1 [Compound 118] | > 10 µM | > 10 µM | 1 to 10 µM | 1 to 10 µM | – |
| c1cc2c(cc1-c1cn[nH]c1)COc1nc(N3CCC34CCNC4)ccc1-2 (centres unmarked) [Compound 207] | > 10 µM | > 10 µM | 1 to 10 µM | 1 to 10 µM | – |

| Compound | IC50 (HTT; Homo sapiens) | IC50 (SMN2) | IC50 [1] | IC50 [2] | IC50 (HTT) |
| --- | --- | --- | --- | --- | --- |
| CN(c1ccc2c(n1)OCc1cc(-c3ccc(=O)[nH]c3)ccc1-2)[C@@H]1C[C@H]2CC[C@@H](C1)N2 [Compound 157] | 1 to 10 µM | 0.1 to 1 µM | 1 to 10 µM | 1 to 10 µM | – |
| CN(c1ccc2c(n1)COc1cc(-c3cn[nH]c3)ccc1-2)[C@@H]1C[C@H]2CC[C@@H](C1)N2 [Compound 121] | 0.1 to 1 µM | 0.1 to 1 µM | 0.1 to 1 µM | 1 to 10 µM | – |
| Cc1ncc(-c2ccc3c(c2)COc2nc(O[C@@H]4C[C@H]5C[C@@H](C4)N5)ccc2-3)s1 [Compound 208] | < 0.1 µM | < 0.1 µM | < 0.1 µM | 0.1 to 1 µM | – |
| C[C@H]1C[C@H](N(C)c2ccc3c(c2)OCc2cc(-c4cn[nH]c4)ccc2-3)CCN1 [Compound 102] | > 10 µM | – | 1 to 10 µM | 1 to 10 µM | – |
| CC(C)Oc1cnnc(-c2ccc3c(c2)COc2nc(N4CCC(NC(C)(C)C)C4)ccc2-3)c1 (centres unmarked) [Compound 286] | > 10 µM | > 10 µM | 1 to 10 µM | 1 to 10 µM | – |
| CN(c1cnc2c(n1)OCc1cc(-c3cn[nH]c3)ccc1-2)[C@@H]1C[C@H]2CC[C@@H](C1)N2 [Compound 144] | 0.1 to 1 µM | > 10 µM | < 0.1 µM | 0.1 to 1 µM | – |
| CN(c1ccc2c(n1)OCCc1cc(-c3cn[nH]c3)ccc1-2)C1CC(C)(C)NC(C)(C)C1 [Compound 145] | > 10 µM | 1 to 10 µM | 1 to 10 µM | 1 to 10 µM | – |
| CN(c1ccc2c(n1)OCc1cc(-c3cnc(=O)[nH]c3)ccc1-2)[C@@H]1C[C@H]2CC[C@@H](C1)N2 [Compound 161] | > 10 µM | > 10 µM | > 10 µM | > 10 µM | – |
| CN(c1ccc2c(n1)OCc1cc(-n3ccnc3)ccc1-2)[C@@H]1C[C@H]2CC[C@@H](C1)N2 [Compound 163] | < 0.1 µM | < 0.1 µM | < 0.1 µM | < 0.1 µM | – |
| Cc1ncc(-c2ccc3c(c2)COc2nc(N(C)[C@@H]4C[C@H]5CC[C@@H](C4)N5)ccc2-3)o1 [Compound 155] | < 0.1 µM | < 0.1 µM | < 0.1 µM | 0.1 to 1 µM | – |
| CN(c1ccc2c(c1)OCc1cc(-n3cccn3)ccc1-2)[C@@H]1C[C@H]2CC[C@@H](C1)N2 [Compound 105] | > 10 µM | > 10 µM | 1 to 10 µM | 1 to 10 µM | – |
| CN(c1ccc2c(n1)CCOc1cc(-n3cccn3)ccc1-2)C1CC(C)(C)NC(C)(C)C1 [Compound 129] | > 10 µM | > 10 µM | > 10 µM | > 10 µM | – |
| CN(c1ccc2c(n1)OCc1cc(-c3cc(=O)n(C)cn3)ccc1-2)[C@@H]1C[C@H]2CC[C@@H](C1)N2 [Compound 162] | < 0.1 µM | < 0.1 µM | < 0.1 µM | 0.1 to 1 µM | – |
| CN(c1ccc2c(n1)OCc1cc(-n3cccn3)ccc1-2)C1CC(C)(C)NC(C)(C)C1 [Compound 148] | 1 to 10 µM | 0.1 to 1 µM | 1 to 10 µM | 1 to 10 µM | – |
| COc1cc(-c2ccc3c(c2)COc2nc(N(C)[C@@H]4C[C@H]5CC[C@@H](C4)N5)ccc2-3)ccn1 [Compound 156] | < 0.1 µM | 0.1 to 1 µM | 0.1 to 1 µM | 0.1 to 1 µM | – |
| CN(c1ccc2c(n1)COc1cc(-n3cccn3)ccc1-2)[C@@H]1C[C@H]2CC[C@@H](C1)N2 [Compound 124] | 1 to 10 µM | 1 to 10 µM | 1 to 10 µM | 1 to 10 µM | – |
| CN(c1ccc2c(n1)OCCc1cc(-c3cn[nH]c3)ccc1-2)[C@@H]1C[C@H]2CC[C@@H](C1)N2 [Compound 146] | 1 to 10 µM | > 10 µM | 1 to 10 µM | 1 to 10 µM | – |
| CN(c1ccc2c(n1)OCc1cc(-c3ccc(=O)n(C)c3)ccc1-2)[C@@H]1C[C@H]2CC[C@@H](C1)N2 [Compound 158] | 0.1 to 1 µM | 0.1 to 1 µM | 1 to 10 µM | 0.1 to 1 µM | – |
